The target of assay [1] is T1, Angiopoietin-1 receptor (Homo sapiens, UniProt Q02763). Nature of the assay: Binding affinity to human recombinant Tie2 by SPR assay. On the technique in general: SPR reads the build-up and loss of mass on a sensor chip optically.
In assay [2] the target is T1, Angiopoietin-1 receptor. The experiment in a line: Displacement of angiopoietin 1 from human recombinant Tie2 at 50 to 100 uM.
The target of assay [3] is T1, Angiopoietin-1 receptor. Nature of the assay: Displacement of angiopoietin 1 from human recombinant Tie2 at 25 to 100 uM.
For assay [4], the target named is T1, Angiopoietin-1 receptor. The experiment in a line: Displacement of angiopoietin 2 from human recombinant Tie2 at 25 to 100 uM.

The source made the active and inactive calls. The calls are words filed in the database; no cut-off is given here.

T1 sequence (Q02763 whole entry): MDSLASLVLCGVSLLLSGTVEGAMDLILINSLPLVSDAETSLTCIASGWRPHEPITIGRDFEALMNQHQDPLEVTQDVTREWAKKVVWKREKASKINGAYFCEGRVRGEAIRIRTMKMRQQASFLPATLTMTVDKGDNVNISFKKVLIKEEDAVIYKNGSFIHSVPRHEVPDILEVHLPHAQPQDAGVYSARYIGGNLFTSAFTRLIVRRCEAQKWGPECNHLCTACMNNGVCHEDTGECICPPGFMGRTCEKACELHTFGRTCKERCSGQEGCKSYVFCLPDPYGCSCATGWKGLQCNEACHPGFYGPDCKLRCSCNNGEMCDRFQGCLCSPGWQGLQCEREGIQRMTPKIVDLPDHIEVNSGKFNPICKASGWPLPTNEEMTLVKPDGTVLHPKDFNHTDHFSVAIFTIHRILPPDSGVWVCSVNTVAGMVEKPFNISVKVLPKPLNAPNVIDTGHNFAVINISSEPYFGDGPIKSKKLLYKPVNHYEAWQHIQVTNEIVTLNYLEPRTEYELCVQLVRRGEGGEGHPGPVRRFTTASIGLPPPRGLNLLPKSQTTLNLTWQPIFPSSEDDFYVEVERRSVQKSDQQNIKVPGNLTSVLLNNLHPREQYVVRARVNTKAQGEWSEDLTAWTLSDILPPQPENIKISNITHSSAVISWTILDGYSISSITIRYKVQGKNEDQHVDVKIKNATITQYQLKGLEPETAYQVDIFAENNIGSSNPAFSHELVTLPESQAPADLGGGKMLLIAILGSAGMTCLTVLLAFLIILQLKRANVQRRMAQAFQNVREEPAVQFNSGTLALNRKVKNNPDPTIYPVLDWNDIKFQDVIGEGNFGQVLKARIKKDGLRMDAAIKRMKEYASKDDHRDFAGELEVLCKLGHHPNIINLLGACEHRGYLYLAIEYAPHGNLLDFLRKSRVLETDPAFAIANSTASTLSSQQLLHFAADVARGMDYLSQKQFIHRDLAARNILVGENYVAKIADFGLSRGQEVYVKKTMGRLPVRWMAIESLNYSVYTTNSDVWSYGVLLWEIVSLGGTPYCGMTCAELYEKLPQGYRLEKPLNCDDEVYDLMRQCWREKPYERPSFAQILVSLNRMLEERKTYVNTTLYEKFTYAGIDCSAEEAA

As usually defined, the Kd is a measure of binding affinity in units of concentration. On to `O=C(N[C@H](Cc1ccccc1F)C(=O)O)OCC1c2ccccc2-c2ccccc21`, for which, on Angiopoietin-1 receptor [1], the Kd turned out to be 120 µM. The result at Angiopoietin-1 receptor [2] was Active.

For `CC1(C)S[C@@H]2[C@H](NC(=O)[C@H](N)c3ccccc3)C(=O)N2[C@H]1C(=O)O` [AMPICILLIN], the Kd at Angiopoietin-1 receptor [1] stood at 82 µM. On Angiopoietin-1 receptor [2], the result was Active.

For `O=C(O)COCCN1CCN(C(c2ccccc2)c2ccc(Cl)cc2)CC1` (centres undefined) [CETIRIZINE], at Angiopoietin-1 receptor [1], the Kd worked out at 90 µM. Also, at Angiopoietin-1 receptor [2], the result was Active.

With `CN(C)C(=O)C(CCN1CCC(O)(c2ccc(Cl)cc2)CC1)(c1ccccc1)c1ccccc1` [LOPERAMIDE], the Kd at Angiopoietin-1 receptor [1] is 5.9 µM. For the same compound, the result at Angiopoietin-1 receptor [3] and on Angiopoietin-1 receptor [4] was Active.

Values taken from ChEMBL document CHEMBL2010691, “Discovery of loperamide as an antagonist of angiopoietin1 and angiopoietin2 by virtual screening” (Bioorg Med Chem Lett, 2012).
